Key:
[1] = test system: AsPC-1 cells; experiment: Cell Proliferation Assay, AsPC-1 (CellTiter-Glo 2.0 viability); type: cell-based; conditions: AsPC-1 pancreatic cancer (KRAS G12D mutation)
Procedure: (§1) Test Example 3: Cell Proliferation Assay
(§2) Cell viability testing of test compounds in AsPC-1 pancreatic cancer (KRAS G12D mutation) or SW480 colon cancer (KRAS G12V mutation) cells for 72 hours
(§3) The reference compound Staurosporine was purchased from Sigma-Aldrich (Saint Louis, MI), and CellTiter-Glo® 2.0 Luminescent cell viability assay reagent (cat #G9243) was purchased from Promega (Madison, WI). AsPC-1 and SW480 cell lines were purchased from American Type Culture Collection (Manassas, VA). AsPC-1 cells were cultured with RPMI-1640 (ATCC, cat #30-2001) and SW480 cells were cultured with DMEM (ATCC cat #30-2002).
(§4) A medium supplemented with 10% FBS (Sigma-Aldrich, cat #F2442) and 100 µg/mL of penicillin-streptomycin (Sigma-Aldrich, cat #P4333) was used. Cells were cultured at 37 °C in a humidified atmosphere of 5% CO2 and 95% air.
(§5) • 1. The test compound and reference compound, Staurosporine were dissolved in DMSO solution to prepare 20 mM (test compound) and 10 mM (control compound, Staurosporine) in the Source Plate and diluted with DMSO to 3-fold and 10 doses. • 2. From the Source Plate, 10 volumes of 125 nL test compound or 25 nL reference compound were dispensed into wells of a 384-well culture plate (VWR, cat #82050-076) using Echo 655. • 3. 25 μL of culture medium including 2000 AsPC-1 or SW480 cells was dispensed into each 384-well cell culture plate. • 4. Cells were cultured with the compound for 72 hours at 37 °C and 5% CO2 conditions. • 5. 25 μL of CellTiter-Glo 2.0 reagent was added to each well of the plate. • 6. The contents were mixed for 2 minutes on an orbital shaker, and the luminescence signal was stabilized at room temperature for 15 minutes. • 7. Luminescence signals were measured with an Envision 2104 Multilabel Reader (PerkinElmer, Santa Clara, CA), and the number of surviving cells was determined through quantification of ATP present in each culture. • 8. IC50 values were calculated based on the Sigmoidal dose-response equation in the GraphPad Prism 4 program.

[2] = test system: SW480 cells; experiment: Cell Proliferation Assay, SW480 (CellTiter-Glo 2.0 viability); type: cell-based; conditions: Homo sapiens; SW480 colon cancer (KRAS G12V mutation); 72 hours
Procedure: as §1, §2, §3, §4, §5

| IC50 ([1]; Homo sapiens, ASPC1, 72 h) [nM] | IC50 [2] [nM] | IC50 ([1]; 72 hours) [nM] | SMILES |
| --- | --- | --- | --- |
| 1000 to 10000 | 1000 to 10000 | – | C#Cc1c(F)ccc2cc(O)cc(-c3nc4c5c(nc(OC[C@@]67CCCN6C[C@H](F)C7)nc5c3F)N([C@H](C)c3cccnc3N)C[C@H](C)O4)c12 [Example 6a, 4-((S)-10-((R)-1-(2-aminopyridin-3-yl)ethyl)-4-fluoro-2-(((2R,7aS)-2-fluorotetrahydro-1H-pyrrolizin-7a(5H)-yl)methoxy)-8-methyl-9,10-dihydro-8H-7-oxa-1,3,6,10-tetraazacyclohepta[de]naphthalen-5-yl)-5-ethynyl-6-fluoronaphthalen-2-ol] |
| 1000 to 10000 | < 1000 | – | C#Cc1c(F)ccc2cc(O)cc(-c3nc4c5c(nc(OCC6(CN7CCOCC7)CC6)nc5c3F)N(C(C)c3cccnc3N)CCO4)c12 (stereo not drawn) [Example 12, 4-(10-(1-(2-aminopyridin-3-yl)ethyl)-4-fluoro-2-((1-(morpholinomethyl)cyclopropyl)methoxy)-9,10-dihydro-8H-7-oxa-1,3,6,10-tetraazacyclohepta[de]naphthalen-5-yl)-5-ethynyl-6-fluoronaphthalen-2-ol] |
| < 1000 | < 1000 | – | C#Cc1c(F)ccc2cc(O)cc(-c3nc4c5c(nc(OC[C@@]67CCCN6C[C@H](F)C7)nc5c3F)N([C@H](C)c3cccnc3N)CCO4)c12 [Example 13a, 4-(10-((R)-1-(2-aminopyridin-3-yl)ethyl)-4-fluoro-2-(((2R,7aS)-2-fluorotetrahydro-1H-pyrrolizin-7a(5H)-yl)methoxy)-9,10-dihydro-8H-7-oxa-1,3,6,10-tetraazacyclohepta[de]naphthalen-5-yl)-5-ethynyl-6-fluoronaphthalen-2-ol] |
| < 1000 | < 1000 | – | CCc1c(F)ccc2cc(O)cc(-c3nc4c5c(nc(OC[C@@]67CCCN6C[C@H](F)C7)nc5c3F)N([C@H](C)c3cccnc3N)CCO4)c12 [Example 14a, 4-(10-((R)-1-(2-aminopyridin-3-yl)ethyl)-4-fluoro-2-(((2R,7aS)-2-fluorotetrahydro-1H-pyrrolizin-7a(5H)-yl)methoxy)-9,10-dihydro-8H-7-oxa-1,3,6,10-tetraazacyclohepta[de]naphthalen-5-yl)-5-ethyl-6-fluoronaphthalen-2-ol] |
| < 1000 | < 1000 | – | CCc1c(F)ccc2cc(O)cc(-c3nc4c5c(nc(OC[C@@]67CCCN6C[C@H](OC)C7)nc5c3F)N(C(C)c3cccnc3N)CCO4)c12 (stereo partly drawn) [Example 17, 4-(10-(1-(2-aminopyridin-3-yl)ethyl)-4-fluoro-2-(((2R,7aS)-2-methoxytetrahydro-1H-pyrrolizin-7a(5H)-yl)methoxy)-9,10-dihydro-8H-7-oxa-1,3,6,10-tetraazacyclohepta[de]naphthalen-5-yl)-5-ethyl-6-fluoronaphthalen-2-ol] |
| 1000 to 10000 | < 1000 | – | C#Cc1c(F)ccc2cc(O)cc(-c3nc4c5c(nc(OCC6C[C@@H](F)CN6C)nc5c3F)N(C(C)c3cccnc3N)CCO4)c12 (stereo partly drawn) [Example 18, 4-(10-(1-(2-aminopyridin-3-yl)ethyl)-4-fluoro-2-(((4R)-4-fluoro-1-methylpyrrolidin-2-yl)methoxy)-9,10-dihydro-8H-7-oxa-1,3,6,10-tetraazacyclohepta[de]naphthalen-5-yl)-5-ethynyl-6-fluoronaphthalen-2-ol] |
| – | < 1000 | – | C#Cc1c(F)ccc2cc(O)cc(-c3nc4c5c(nc(OC[C@@]67CCCN6C[C@H](F)C7)nc5c3F)N(C(C)c3ccccc3N)CCO4)c12 (stereo partly drawn) [Example 20, 4-(10-(1-(2-aminophenyl)ethyl)-4-fluoro-2-(((2R,7aS)-2-fluorotetrahydro-1H-pyrrolizin-7a(5H)-yl)methoxy)-9,10-dihydro-8H-7-oxa-1,3,6,10-tetraazacyclohepta[de]naphthalen-5-yl)-5-ethynyl-6-fluoronaphthalen-2-ol] |
| 1000 to 10000 | < 1000 | – | CCc1c(F)ccc2cc(O)cc(-c3nc4c5c(nc(OCC6C[C@@H](F)CN6C)nc5c3F)N(C(C)c3cccnc3N)CCO4)c12 (stereo partly drawn) [Example 22, 4-(10-(1-(2-aminopyridin-3-yl)ethyl)-4-fluoro-2-(((4R)-4-fluoro-1-methylpyrrolidin-2-yl)methoxy)-9,10-dihydro-8H-7-oxa-1,3,6,10-tetraazacyclohepta[de]naphthalen-5-yl)-5-ethyl-6-fluoronaphthalen-2-ol] |
| 1000 to 10000 | < 1000 | – | CCc1c(F)ccc2cc(O)cc(-c3nc4c5c(nc(OC[C@@]67CCCN6C[C@H](F)C7)nc5c3F)N(C(C)c3cc(C)cnc3N)CCO4)c12 (stereo partly drawn) [Example 23, 4-(10-(1-(2-amino-5-methylpyridin-3-yl)ethyl)-4-fluoro-2-(((2R,7aS)-2-fluorotetrahydro-1H-pyrrolizin-7a(5H)-yl)methoxy)-9,10-dihydro-8H-7-oxa-1,3,6,10-tetraazacyclohepta[de]naphthalen-5-yl)-5-ethyl-6-fluoronaphthalen-2-ol] |
| > 10000 | 1000 to 10000 | – | CCc1c(F)ccc2cc(O)cc(-c3nc4c5c(nc(OCC6(C#N)CCOCC6)nc5c3F)N(C(C)c3cccnc3N)CCO4)c12 (stereo not drawn) [Example 24, 4-(((10-(1-(2-aminopyridin-3-yl)ethyl)-5-(8-ethyl-7-fluoro-3-hydroxynaphthalen-1-yl)-4-fluoro-9,10-dihydro-8H-7-oxa-1,3,6,10-tetraazacyclohepta[de]naphthalen-2-yl)oxy)methyl)tetrahydro-2H-pyran-4-carbonitrile] |
| 1000 to 10000 | < 1000 | – | CCc1c(F)ccc2cc(O)cc(-c3nc4c5c(nc(OC[C@@H]6CC[C@H]7COCCN76)nc5c3F)N(C(C)c3cccnc3N)CCO4)c12 (stereo partly drawn) [Example 25, 4-(10-(1-(2-aminopyridin-3-yl)ethyl)-4-fluoro-2-(((6S,8aS)-hexahydro-1H-pyrrolo[2,1-c][1,4]oxazin-6-yl)methoxy)-9,10-dihydro-8H-7-oxa-1,3,6,10-tetraazacyclohepta[de]naphthalen-5-yl)-5-ethyl-6-fluoronaphthalen-2-ol] |
| < 1000 | < 1000 | – | CC(c1cccnc1N)N1CCOc2c(Cl)c(-c3ccc(F)c4sc(N)c(C#N)c34)c(F)c3nc(OC[C@@]45CCCN4C[C@H](F)C5)nc1c23 (stereo partly drawn) [Example 29a, (4R)-2-amino-4-(4-(1-(2-aminopyridin-3-yl)ethyl)-8-chloro-10-fluoro-2-(((2R,7aS)-2-fluorotetrahydro-1H-pyrrolizin-7a(5H)-yl)methoxy)-5,6-dihydro-4H-[1,4]oxazepino[5,6,7-de]quinazolin-9-yl)-7-fluorobenzo[b]thiophene-3-carbonitrile] |
| – | – | 1000 to 10000 | CC(c1cccnc1N)N1CCOc2c(Cl)c(-c3ccc(F)c4sc(N)c(C#N)c34)c(F)c3nc(OC[C@@]45CCCN4C[C@H](F)C5)nc1c23 (stereo partly drawn) [Example 29b, (4S)-2-amino-4-(4-(1-(2-aminopyridin-3-yl)ethyl)-8-chloro-10-fluoro-2-(((2R,7aS)-2-fluorotetrahydro-1H-pyrrolizin-7a(5H)-yl)methoxy)-5,6-dihydro-4H-[1,4]oxazepino[5,6,7-de]quinazolin-9-yl)-7-fluorobenzo[b]thiophene-3-carbonitrile] |

— US20260374781A1, “NOVEL TRIHETEROCYCLIC COMPOUNDS” (IDENCE CO., LTD., priority 2022, published 2026)
